What was measured:
[1] = molecular target: Aldo-keto reductase family 1 member B1 (Rattus norvegicus, UniProt P07943); test: biochemical; format: tissue-based, Lens of camera-type eye;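 also: inhibition of aldose reductase enzyme activity, measured with DL-glyceraldehyde as the substrate; in other assays of this panel Not Active means under 50% inhibition at 10 µM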
[2] = DRUGMATRIX: beta-Lactamase enzyme inhibition (substrate: Nitrocefin); set-up: species or system Bacillus cereus; details: Not Active = under 50% inhibition at 10 µM
[3] = DRUGMATRIX: Calcium Channel Type L, Benzothiazepine radioligand binding (ligand: [3H] Diltiazem); format: cell membranes, Rattus norvegicus, Wistar, Brain, Membrane; details: Not Active = under 50% inhibition at 10 µM
[4] = DRUGMATRIX: Serotonin (5-Hydroxytryptamine) 5-HT3 radioligand binding (ligand: [3H] GR-65630); format: cell membranes, Membrane; details: hek293; Not Active = under 50% inhibition at 10 µM
[5] = molecular target: Melanocortin receptor 3 (Homo sapiens, UniProt P41968); format: cell membranes, Membrane; details: hek293; also: in other assays of this panel Not Active means under 50% inhibition at 10 µM
Sequence of Melanocortin receptor 3 (P41968 whole entry): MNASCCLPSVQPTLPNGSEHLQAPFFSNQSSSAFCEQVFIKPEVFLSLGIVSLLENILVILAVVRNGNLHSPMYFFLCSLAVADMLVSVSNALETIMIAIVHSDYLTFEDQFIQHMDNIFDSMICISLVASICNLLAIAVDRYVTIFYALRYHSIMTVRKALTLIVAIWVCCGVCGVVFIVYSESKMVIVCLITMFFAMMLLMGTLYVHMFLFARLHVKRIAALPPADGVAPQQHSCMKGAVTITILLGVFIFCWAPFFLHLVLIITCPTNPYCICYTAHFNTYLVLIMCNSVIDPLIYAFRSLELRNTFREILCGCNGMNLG

[6] = molecular target: T1, Angiotensin-converting enzyme (Oryctolagus cuniculus, UniProt P12822); format: tissue-based, Lung;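 also: enzymatic inhibition of angiotensin-converting enzyme measured with FAPGG as the substrate; in other assays of this panel Not Active means under 50% inhibition at 10 µM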
T1 sequence (P12822 whole entry): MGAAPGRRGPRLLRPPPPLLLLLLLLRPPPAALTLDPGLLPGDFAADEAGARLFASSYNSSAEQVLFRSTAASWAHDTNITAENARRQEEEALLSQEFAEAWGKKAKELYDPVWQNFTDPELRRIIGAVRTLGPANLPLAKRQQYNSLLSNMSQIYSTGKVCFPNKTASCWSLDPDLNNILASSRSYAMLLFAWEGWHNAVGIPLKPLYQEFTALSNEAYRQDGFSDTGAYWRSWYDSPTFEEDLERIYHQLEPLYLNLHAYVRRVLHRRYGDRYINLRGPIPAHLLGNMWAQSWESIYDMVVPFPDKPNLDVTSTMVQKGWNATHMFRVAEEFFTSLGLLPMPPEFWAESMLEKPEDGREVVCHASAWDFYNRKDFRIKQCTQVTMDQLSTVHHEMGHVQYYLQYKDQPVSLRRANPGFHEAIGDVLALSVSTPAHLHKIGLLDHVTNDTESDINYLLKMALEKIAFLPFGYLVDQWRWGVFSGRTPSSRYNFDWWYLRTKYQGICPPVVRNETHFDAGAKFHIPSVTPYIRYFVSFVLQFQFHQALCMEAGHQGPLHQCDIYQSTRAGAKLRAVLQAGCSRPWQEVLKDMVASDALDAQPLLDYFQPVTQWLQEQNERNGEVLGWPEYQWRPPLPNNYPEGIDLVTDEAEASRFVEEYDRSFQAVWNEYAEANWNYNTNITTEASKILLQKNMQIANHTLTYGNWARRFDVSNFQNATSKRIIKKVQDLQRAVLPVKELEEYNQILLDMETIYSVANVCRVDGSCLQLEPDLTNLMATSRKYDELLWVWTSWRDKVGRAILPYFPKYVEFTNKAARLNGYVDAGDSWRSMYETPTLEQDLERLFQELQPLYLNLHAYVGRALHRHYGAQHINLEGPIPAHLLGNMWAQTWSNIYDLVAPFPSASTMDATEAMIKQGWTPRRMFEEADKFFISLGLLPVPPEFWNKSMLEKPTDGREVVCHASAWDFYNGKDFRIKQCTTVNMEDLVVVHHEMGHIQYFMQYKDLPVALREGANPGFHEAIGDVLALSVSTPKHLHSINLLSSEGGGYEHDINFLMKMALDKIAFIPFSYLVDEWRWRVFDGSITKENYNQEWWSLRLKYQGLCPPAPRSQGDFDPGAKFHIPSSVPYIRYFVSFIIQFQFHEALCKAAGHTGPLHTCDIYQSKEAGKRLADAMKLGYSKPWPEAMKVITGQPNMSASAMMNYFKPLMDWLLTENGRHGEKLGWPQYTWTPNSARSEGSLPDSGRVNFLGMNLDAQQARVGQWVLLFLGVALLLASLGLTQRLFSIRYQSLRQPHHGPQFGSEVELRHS

[7] = molecular target: T2, Cathepsin G (Homo sapiens, UniProt P08311); format: tissue-based; details: neutrophil;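 also: inhibition of Cathepsin G enzyme activity, tested on an AMC-conjugated peptide substrate; in other assays of this panel Not Active means under 50% inhibition at 10 µM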
T2 sequence (P08311 whole entry): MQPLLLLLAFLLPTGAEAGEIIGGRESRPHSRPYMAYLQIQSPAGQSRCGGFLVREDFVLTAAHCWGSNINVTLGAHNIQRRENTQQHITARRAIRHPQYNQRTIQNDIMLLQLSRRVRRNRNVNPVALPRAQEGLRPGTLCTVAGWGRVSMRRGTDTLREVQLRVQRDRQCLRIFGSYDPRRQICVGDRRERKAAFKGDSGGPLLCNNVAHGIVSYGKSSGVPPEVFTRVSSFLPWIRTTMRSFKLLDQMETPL

[8] = molecular target: T3, Cytochrome P450 2A6 (Homo sapiens, UniProt P11509); details: bti-tn-5b1-4; also: in other assays of this panel Not Active means under 50% inhibition at 10 µM
T3 sequence (P11509 whole entry): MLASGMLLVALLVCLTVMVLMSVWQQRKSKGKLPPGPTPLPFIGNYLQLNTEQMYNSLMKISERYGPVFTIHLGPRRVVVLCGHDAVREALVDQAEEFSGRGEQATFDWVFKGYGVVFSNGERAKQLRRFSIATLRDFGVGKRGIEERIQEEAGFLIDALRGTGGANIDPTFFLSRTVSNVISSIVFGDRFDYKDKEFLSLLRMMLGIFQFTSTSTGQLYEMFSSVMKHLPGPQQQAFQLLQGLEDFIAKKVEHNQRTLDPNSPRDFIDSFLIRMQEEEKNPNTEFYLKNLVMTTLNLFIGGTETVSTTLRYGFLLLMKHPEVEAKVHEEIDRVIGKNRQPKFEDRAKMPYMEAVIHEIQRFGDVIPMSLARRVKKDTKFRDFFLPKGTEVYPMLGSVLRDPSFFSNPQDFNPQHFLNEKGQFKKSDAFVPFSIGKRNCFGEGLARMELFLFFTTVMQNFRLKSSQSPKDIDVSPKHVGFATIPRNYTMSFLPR

STANNOUS FLUORIDE
Not Active: IC50 [1] | Ki [1] | IC50 [2] | Ki [2] | IC50 [3] | Ki [3] | IC50 [4] | Ki [4] | IC50 [5] | Ki [5] | IC50 [6] | Ki [6] | IC50 [7] | Ki [7] | IC50 [8] | Ki [8]

THIMEROSAL
Not Active: IC50 [1] | Ki [1] | IC50 [2] | Ki [2] | IC50 [3] | Ki [3] | IC50 [4] | Ki [4] | IC50 [5] | Ki [5] | IC50 [6] | Ki [6] | IC50 [7] | Ki [7] | IC50 [8] | Ki [8]

— ChEMBL document CHEMBL1909046, “DrugMatrix in vitro pharmacology data”
